Article PMC5218480 (PLoS ONE, 2017)

Test system: MV-4-11 cells
Test: Gene expression microarray analysis (Affymetrix PrimeView) and GSEA
Type: cell-based, human
Design: RFU PODN (11730768_x_at) / Fold change /veh PODN (11730768_x_at) / RFU LINC00158 (11744669_a_at) / Fold change /veh LINC00158 (11744669_a_at) / RFU DUSP10 (11751237_a_at) / Fold change /veh DUSP10 (11751237_a_at) / RFU ID3 (11757404_x_at) / Fold change /veh ID3 (11757404_x_at) / RFU PLEKHG5 (11737974_s_at) / Fold change /veh PLEKHG5 (11737974_s_at) / RFU LRRC4B (11730491_at) / Fold change /veh LRRC4B (11730491_at) / RFU GIMAP4 (11747438_a_at) / Fold change /veh GIMAP4 (11747438_a_at) / RFU KRT8 (11758183_x_at) / Fold change /veh KRT8 (11758183_x_at) / RFU CNN1 (11734310_a_at) / Fold change /veh CNN1 (11734310_a_at) / RFU VPS37D (11726825_at) / Fold change /veh VPS37D (11726825_at) / RFU C10orf10 (11716522_x_at) / Fold change /veh C10orf10 (11716522_x_at) / RFU KIR2DL2 /// KIR2DL4 /// KIR2DL5A /// KIR2DL5B /// KIR2DS1 /// KIR2DS2 /// KIR2DS3 /// KIR2DS4 /// KIR3DL3 /// KIR3DL3 /// KIR3DS1 (11738374_at) / Fold change /veh KIR2DL2 /// KIR2DL4 /// KIR2DL5A /// KIR2DL5B /// KIR2DS1 /// KIR2DS2 /// KIR2DS3 /// KIR2DS4 /// KIR3DL3 /// KIR3DL3 /// KIR3DS1 (11738374_at) / RFU C1QL1 (11718748_at) / Fold change /veh C1QL1 (11718748_at) / RFU TMPRSS4 (11747572_a_at) / Fold change /veh TMPRSS4 (11747572_a_at) / RFU HAMP (11756126_x_at) / Fold change /veh HAMP (11756126_x_at) / RFU RNFT2 (11725882_a_at) / Fold change /veh RNFT2 (11725882_a_at) / RFU NR4A2 (11747474_a_at) / Fold change /veh NR4A2 (11747474_a_at) / RFU ABCC12 (11746883_a_at) / Fold change /veh ABCC12 (11746883_a_at) / RFU TMEM136 (11760407_x_at) / Fold change /veh TMEM136 (11760407_x_at) / RFU CLDN22 /// WWC2 (11732394_at) / Fold change /veh CLDN22 /// WWC2 (11732394_at) / RFU HLA-DPB1 (11760878_x_at) / Fold change /veh HLA-DPB1 (11760878_x_at) / RFU SPINT1 (11716480_a_at) / Fold change /veh SPINT1 (11716480_a_at) / RFU GAP43 (11754022_s_at) / Fold change /veh GAP43 (11754022_s_at) / RFU A4GNT (11735810_at) / Fold change /veh A4GNT (11735810_at) / RFU PRB3 (11715151_x_at) / Fold change /veh PRB3 (11715151_x_at) / RFU TUBB4B (11761932_at) / Fold change /veh TUBB4B (11761932_at) / RFU CAPN14 (11732068_a_at) / Fold change /veh CAPN14 (11732068_a_at) / RFU TMCC2 (11721928_a_at) / Fold change /veh TMCC2 (11721928_a_at) / RFU IRGQ (11745062_a_at) / Fold change /veh IRGQ (11745062_a_at) / RFU FAM174B (11720279_a_at) / Fold change /veh FAM174B (11720279_a_at) / RFU TMPRSS4 (11748680_a_at) / Fold change /veh TMPRSS4 (11748680_a_at) / RFU FAM212B (11763350_a_at) / Fold change /veh FAM212B (11763350_a_at) / RFU PLEKHG5 (11743358_a_at) / Fold change /veh PLEKHG5 (11743358_a_at) / RFU ZSCAN30 (11745921_a_at) / Fold change /veh ZSCAN30 (11745921_a_at) / RFU CMKLR1 (11741424_a_at) / Fold change /veh CMKLR1 (11741424_a_at) / RFU LOC101060620 /// MAPK8IP1 (11723275_at) / Fold change /veh LOC101060620 /// MAPK8IP1 (11723275_at) / RFU SPTSSB (11747773_x_at) / Fold change /veh SPTSSB (11747773_x_at) / RFU PRSS12 (11739890_at) / Fold change /veh PRSS12 (11739890_at) / RFU BIN1 (11741810_x_at) / Fold change /veh BIN1 (11741810_x_at) / RFU WNT11 (11732464_a_at) / Fold change /veh WNT11 (11732464_a_at) / RFU C10orf10 (11716521_a_at) / Fold change /veh C10orf10 (11716521_a_at) / RFU C5orf56 (11738089_at) / Fold change /veh C5orf56 (11738089_at) / RFU CYB561 (11721691_x_at) / Fold change /veh CYB561 (11721691_x_at) / RFU ANKRD19P (11752326_a_at) / Fold change /veh ANKRD19P (11752326_a_at) / RFU OR2T12 /// OR2T33 /// OR2T8 (11738714_s_at) / Fold change /veh OR2T12 /// OR2T33 /// OR2T8 (11738714_s_at) / RFU VCAN (11748164_a_at) / Fold change /veh VCAN (11748164_a_at) / RFU JSRP1 (11732532_at) / Fold change /veh JSRP1 (11732532_at) / RFU KRTAP10-11 (11738290_x_at) / Fold change /veh KRTAP10-11 (11738290_x_at) / RFU MYO3A (11730013_a_at) / Fold change /veh MYO3A (11730013_a_at) / RFU EBF3 (11725865_a_at) / Fold change /veh EBF3 (11725865_a_at) / RFU CAMK2N1 (11719241_x_at) / Fold change /veh CAMK2N1 (11719241_x_at) / RFU C5orf56 (11738088_a_at) / Fold change /veh C5orf56 (11738088_a_at) / RFU OLFML3 (11715873_a_at) / Fold change /veh OLFML3 (11715873_a_at) / RFU LOC100653217 /// NTM (11731650_a_at) / Fold change /veh LOC100653217 /// NTM (11731650_a_at) / RFU MAPK11 (11762145_a_at) / Fold change /veh MAPK11 (11762145_a_at) / RFU FIZ1 (11724087_x_at) / Fold change /veh FIZ1 (11724087_x_at) / RFU OASL (11726364_x_at) / Fold change /veh OASL (11726364_x_at) / RFU SOX15 (11748057_x_at) / Fold change /veh SOX15 (11748057_x_at) / RFU CD79A (11719716_a_at) / Fold change /veh CD79A (11719716_a_at) / RFU HIST1H1D (11736915_at) / Fold change /veh HIST1H1D (11736915_at) / RFU CASKIN2 (11723855_a_at) / Fold change /veh CASKIN2 (11723855_a_at) / RFU LOC730098 (11760151_x_at) / Fold change /veh LOC730098 (11760151_x_at) / RFU OR4N2 (11742367_at) / Fold change /veh OR4N2 (11742367_at) / RFU PRRT2 (11749266_a_at) / Fold change /veh PRRT2 (11749266_a_at) / RFU SNX32 (11753110_a_at) / Fold change /veh SNX32 (11753110_a_at) / RFU CDHR5 (11726645_a_at) / Fold change /veh CDHR5 (11726645_a_at) / RFU RCAN1 (11760418_a_at) / Fold change /veh RCAN1 (11760418_a_at) / RFU FAM167A (11723789_a_at) / Fold change /veh FAM167A (11723789_a_at) / RFU FAM26E (11764081_at) / Fold change /veh FAM26E (11764081_at) / RFU ISYNA1 (11749810_s_at) / Fold change /veh ISYNA1 (11749810_s_at) / RFU ACY1 (11761880_at) / Fold change /veh ACY1 (11761880_at) / RFU 11764098_at / Fold change /veh 11764098_at / RFU SAMD14 (11745864_x_at) / Fold change /veh SAMD14 (11745864_x_at) / RFU NPB (11741838_a_at) / Fold change /veh NPB (11741838_a_at) / RFU TMPRSS6 (11731388_a_at) / Fold change /veh TMPRSS6 (11731388_a_at) / RFU KRTAP10-2 (11738614_at) / Fold change /veh KRTAP10-2 (11738614_at) / RFU ARHGAP8 /// PRR5-ARHGAP8 (11727945_x_at) / Fold change /veh ARHGAP8 /// PRR5-ARHGAP8 (11727945_x_at) / RFU KRTAP5-7 /// NADSYN1 (11734609_at) / Fold change /veh KRTAP5-7 /// NADSYN1 (11734609_at) / RFU RASL12 (11751679_a_at) / Fold change /veh RASL12 (11751679_a_at) / RFU CDKN2B (11736163_a_at) / Fold change /veh CDKN2B (11736163_a_at) / RFU PRF1 (11729649_at) / Fold change /veh PRF1 (11729649_at) / RFU, ZNF638 /// ZNF638-IT1 / Fold change vs veh, ZNF638 /// ZNF638-IT1 / RFU, PANK3 / Fold change vs veh, PANK3 / RFU, SH3YL1 / Fold change vs veh, SH3YL1 / RFU, ZEB2 / Fold change vs veh, ZEB2 / RFU, NRIP1 / Fold change vs veh, NRIP1 / RFU, PTTG1IP / Fold change vs veh, PTTG1IP / RFU, CAPN2 / Fold change vs veh, CAPN2 / RFU, MED14 / Fold change vs veh, MED14 / RFU, SNORA58 / Fold change vs veh, SNORA58 / RFU, C1orf63 / Fold change vs veh, C1orf63 / RFU, LRRFIP1 / Fold change vs veh, LRRFIP1 / RFU, NDUFAF7 / Fold change vs veh, NDUFAF7 / RFU, SLC12A2 / Fold change vs veh, SLC12A2 / RFU, IBTK / Fold change vs veh, IBTK / RFU, ESF1 / Fold change vs veh, ESF1 / Fold change vs veh, TMEM50B / RFU, TAOK1 / Fold change vs veh, TAOK1 / RFU, ACBD3 / Fold change vs veh, ACBD3 / RFU, TMA16 / Fold change vs veh, TMA16 / RFU, RWDD3 / Fold change vs veh, RWDD3 / RFU, BCAT1 / Fold change vs veh, BCAT1 / RFU, EDEM3 / Fold change vs veh, EDEM3 / RFU, TMEM33 / Fold change vs veh, TMEM33 / RFU, WDR75 / Fold change vs veh, WDR75 / RFU, AHCTF1 / Fold change vs veh, AHCTF1 / RFU, TFRC / Fold change vs veh, TFRC / RFU, ZDHHC17 / Fold change vs veh, ZDHHC17 / RFU, NOM1 / Fold change vs veh, NOM1 / RFU, ARL8B / Fold change vs veh, ARL8B / RFU, ZBTB11 / Fold change vs veh, ZBTB11 / RFU, TAMM41 / Fold change vs veh, TAMM41 / RFU, KIAA1704 /// LOC100996395 / Fold change vs veh, KIAA1704 /// LOC100996395 / RFU, ING1 / Fold change vs veh, ING1 / RFU, TRMT61B / Fold change vs veh, TRMT61B / RFU, FUBP3 / Fold change vs veh, FUBP3 / RFU, TP53 / Fold change vs veh, TP53 / RFU, TNKS2 / Fold change vs veh, TNKS2 / RFU, ZFP14 / Fold change vs veh, ZFP14 / RFU, ACTR2 / Fold change vs veh, ACTR2 / RFU, PPP3R1 / Fold change vs veh, PPP3R1 / RFU, PIK3R1 / Fold change vs veh, PIK3R1 / RFU, HNRNPA1 / Fold change vs veh, HNRNPA1 / RFU, RNF170 / Fold change vs veh, RNF170 / RFU, ZNF28 / Fold change vs veh, ZNF28 / RFU, RNGTT / Fold change vs veh, RNGTT / RFU, OGT / Fold change vs veh, OGT / RFU, BRD1 / Fold change vs veh, BRD1 / RFU, MARS / Fold change vs veh, MARS / RFU, ZNF655 / Fold change vs veh, ZNF655 / RFU, FAHD1 / Fold change vs veh, FAHD1 / RFU, BDP1 / Fold change vs veh, BDP1 / RFU, LRRCC1 / Fold change vs veh, LRRCC1 / RFU, ARID1A / Fold change vs veh, ARID1A / RFU, ZNF146 / Fold change vs veh, ZNF146 / RFU, ZNF330 / Fold change vs veh, ZNF330 / RFU, GPN3 / Fold change vs veh, GPN3 / RFU, C9orf123 / Fold change vs veh, C9orf123 / RFU, N4BP2L2 / Fold change vs veh, N4BP2L2 / RFU, ARFIP1 / Fold change vs veh, ARFIP1 / RFU, FAM179B / Fold change vs veh, FAM179B / RFU, BCL10 / Fold change vs veh, BCL10 / RFU, UHRF1BP1L / Fold change vs veh, UHRF1BP1L / RFU, BET1 / Fold change vs veh, BET1 / RFU, CNOT2 / Fold change vs veh, CNOT2 / RFU, ZNF268 / Fold change vs veh, ZNF268 / Fold change vs veh, ZNF507 / RFU, DGCR2 / Fold change vs veh, DGCR2 / RFU, WDSUB1 / Fold change vs veh, WDSUB1 / Fold change vs veh, HSP90B1 /// MIR3652 / RFU, ADSS / Fold change vs veh, ADSS / RFU, GK / Fold change vs veh, GK / RFU, ZNF148 / Fold change vs veh, ZNF148 / RFU, TAF9 / Fold change vs veh, TAF9 / RFU, SLC1A5 / Fold change vs veh, SLC1A5 / RFU, SLMO2 / Fold change vs veh, SLMO2 / RFU, ABCC4 / Fold change vs veh, ABCC4 / RFU, LOC101060439 /// RAP1B / Fold change vs veh, LOC101060439 /// RAP1B / RFU, RFX7 / Fold change vs veh, RFX7 / RFU, GTPBP10 / Fold change vs veh, GTPBP10 / RFU, CNEP1R1 / Fold change vs veh, CNEP1R1 / RFU, BIVM-ERCC5 /// ERCC5 / Fold change vs veh, BIVM-ERCC5 /// ERCC5 / RFU, ILF3 / Fold change vs veh, ILF3 / RFU 11762660_at / Fold change /veh 11762660_at / RFU VCAN (11757783_s_at) / Fold change /veh VCAN (11757783_s_at) / RFU DDX43 (11728927_at) / Fold change /veh DDX43 (11728927_at) / RFU KRT8 (11758188_x_at) / Fold change /veh KRT8 (11758188_x_at) / RFU NKD1 (11759106_at) / Fold change /veh NKD1 (11759106_at) / RFU SRD5A1 (11742802_a_at) / Fold change /veh SRD5A1 (11742802_a_at) / RFU TPSAB1 /// TPSB2 (11721975_s_at) / Fold change /veh TPSAB1 /// TPSB2 (11721975_s_at) / RFU GSTM3 (11746129_a_at) / Fold change /veh GSTM3 (11746129_a_at) / RFU IL23R (11737362_x_at) / Fold change /veh IL23R (11737362_x_at) / RFU TMEM51 (11727254_a_at) / Fold change /veh TMEM51 (11727254_a_at) / RFU PIWIL2 (11732686_x_at) / Fold change /veh PIWIL2 (11732686_x_at) / RFU ORM1 (11744905_x_at) / Fold change /veh ORM1 (11744905_x_at) / RFU CCDC152 (11743942_at) / Fold change /veh CCDC152 (11743942_at) / RFU ECM1 (11717891_a_at) / Fold change /veh ECM1 (11717891_a_at) / RFU IL23R (11748794_a_at) / Fold change /veh IL23R (11748794_a_at) / RFU TNFAIP8L3 (11732012_x_at) / Fold change /veh TNFAIP8L3 (11732012_x_at) / RFU MBOAT4 (11741988_at) / Fold change /veh MBOAT4 (11741988_at) / RFU 11764193_at / Fold change /veh 11764193_at / RFU TMEM53 (11763286_at) / Fold change /veh TMEM53 (11763286_at) / RFU MAGEB2 (11727129_at) / Fold change /veh MAGEB2 (11727129_at) / RFU TMEM200A (11744735_a_at) / Fold change /veh TMEM200A (11744735_a_at) / RFU CCDC152 (11751479_a_at) / Fold change /veh CCDC152 (11751479_a_at) / RFU FAM211A (11726209_a_at) / Fold change /veh FAM211A (11726209_a_at) / RFU RGS16 (11746705_a_at) / Fold change /veh RGS16 (11746705_a_at) / RFU VCAN (11755009_s_at) / Fold change /veh VCAN (11755009_s_at) / RFU RHOB (11743442_s_at) / Fold change /veh RHOB (11743442_s_at) / RFU RGS16 (11720943_a_at) / Fold change /veh RGS16 (11720943_a_at) / RFU RGS16 (11720944_at) / Fold change /veh RGS16 (11720944_at) / RFU, VPS4B / Fold change vs veh, VPS4B / RFU, CREB1 / Fold change vs veh, CREB1 / RFU, DNAJC13 / Fold change vs veh, DNAJC13 / RFU, GNAQ / Fold change vs veh, GNAQ / RFU, CDK5R1 / Fold change vs veh, CDK5R1 / RFU, ZRANB3 / Fold change vs veh, ZRANB3 / RFU, CUL4A / Fold change vs veh, CUL4A / RFU, CCNY / Fold change vs veh, CCNY / RFU, UFL1 / Fold change vs veh, UFL1 / RFU, COG3 / Fold change vs veh, COG3 / RFU, DIAPH2 / Fold change vs veh, DIAPH2 / RFU, SKA2 / Fold change vs veh, SKA2 / RFU, AFF3 / Fold change vs veh, AFF3 / RFU, LMF1 / Fold change vs veh, LMF1 / RFU, IPO11 / Fold change vs veh, IPO11 / RFU, DFFB / Fold change vs veh, DFFB / RFU, FOXP1 / Fold change vs veh, FOXP1 / RFU, CARD8 / Fold change vs veh, CARD8 / RFU, STRN3 / Fold change vs veh, STRN3 / RFU, ADK / Fold change vs veh, ADK / RFU, RASSF2 / Fold change vs veh, RASSF2 / RFU, WIPF1 / Fold change vs veh, WIPF1 / RFU, LARP1B / Fold change vs veh, LARP1B / RFU, RASA1 / Fold change vs veh, RASA1 / RFU, RB1 / Fold change vs veh, RB1 / RFU, PPFIA1 / Fold change vs veh, PPFIA1 / RFU, MAT2A / Fold change vs veh, MAT2A / RFU, CCT5 / Fold change vs veh, CCT5 / RFU, WDR92 / Fold change vs veh, WDR92 / RFU, CUX1 / Fold change vs veh, CUX1 / RFU, TTC7A / Fold change vs veh, TTC7A / RFU, TMEM135 / Fold change vs veh, TMEM135 / RFU, DEPTOR / Fold change vs veh, DEPTOR / RFU, CPM / Fold change vs veh, CPM / RFU, DNAJB6 / Fold change vs veh, DNAJB6 / RFU, CACNA2D3 / Fold change vs veh, CACNA2D3 / RFU, DTX4 / Fold change vs veh, DTX4 / RFU, TFCP2 / Fold change vs veh, TFCP2 / RFU, GMCL1 /// GMCL1P1 / Fold change vs veh, GMCL1 /// GMCL1P1 / RFU, AEBP2 / Fold change vs veh, AEBP2 / RFU, SNHG1 /// SNORD22 /// SNORD25 /// SNORD26 /// SNORD27 /// SNORD28 /// SNORD29 /// SNORD31 / Fold change vs veh, SNHG1 /// SNORD22 /// SNORD25 /// SNORD26 /// SNORD27 /// SNORD28 /// SNORD29 /// SNORD31 / Fold change (Aza/veh), C12orf56 (ProbeSet 11735607_a_at) / Fold change (ACY-1035/veh), C12orf56 (ProbeSet 11735607_a_at) / Fold change (Aza/veh), FGFR1OP (ProbeSet 11751329_s_at) / Fold change (ACY-1035/veh), FGFR1OP (ProbeSet 11751329_s_at) / Fold change (Aza/veh), VPS36 (ProbeSet 11739960_a_at) / Fold change (ACY-1035/veh), VPS36 (ProbeSet 11739960_a_at) / RFU SYPL1 (11715823_x_at) / Fold change /veh SYPL1 (11715823_x_at) / RFU IGFBP7 (11715501_s_at) / Fold change /veh IGFBP7 (11715501_s_at) / RFU REEP3 (11722064_at) / Fold change /veh REEP3 (11722064_at) / RFU IGLL1 (11728026_x_at) / Fold change /veh IGLL1 (11728026_x_at): dose or concentration left out as unconfirmed
Conditions: ProbeSet 11749551_a_at; LIST B

How did the “RFU, RNGTT” value turn out when `Nc1ccc(-c2cccs2)cc1NC(=O)c1ccc2c(c1)cc(C1CC1)n2CCN1CCOCC1` [ACY-1035] was run?
The value was 53.54 RFU.
